{"source": "patent US7179821B2", "about": "“Method of treating of demyelinating diseases or conditions” (Aventis Pharmaceuticals Inc., priority 2001, dated 2007)", "key": {"[1]": {"tested_on": "RuR-induced flaccid paralysis", "assay": "Antagonism of ruthenium red (RuR)-induced flaccid paralysis, flagpole test", "assay_type": "in vivo, mouse", "method": "Method and Results: Groups of 4–5 mice (CD-1; Charles River; 25–35 grams) were separately but simultaneously injected ip with ruthenium red and vehicle (1% glacial acetic acid), ruthenium red and 4-AP, or ruthenium red and HP 184. The compound known as “8183” was also tested in this paradigm. Starting at 15 minutes after injections, mice were placed near a “flagpole” apparatus and their ability to support their own body weight (ie, to hold on to the flagpole and not fall) was recorded. Results were recorded as the number of mice that could support their own body weight versus the total number of mice tested. All experiments were performed between 2PM and 4:30PM."}, "[2]": {"tested_on": "transient focal cerebral ischemia", "assay": "Transient focal cerebral ischemia in rats, lesion size", "assay_type": "in vivo, rat", "details": "10 mg/kg iv 1 hour after ischemia onset", "method": "Methods: Male Sprague-Dawley rats [Iffa Credo, France] weighing about 220–240 g were anaesthetized with halothane (1.4%) in a nitrous oxide-oxygen mixture (70:30). Both common carotid arteries (CCAs) were isolated. The left middle cerebral artery (MCA) exposed via a temporal craniotomy was occluded with a microclip, and simultaneously the CCAs were occluded for 1 hour. Both body and cerebral temperatures were kept at normothermia. Following surgery animals were returned to their home cages in a room warmed at 24–26° C.\nHP184, dissolved in 1% tween (in injectable sterile water), was administered at 10 and 20 mg/kg iv 1 hour after ischemia onset, and control rats received the vehicle according to the same protocol. At 24 h post-ischemia, a neurological function using a 9 points grading scale was performed blindly.\nThereafter rats were killed and brains were removed. Fresh sections were cut with a brain matrix and stained with triphenyl tetrazolium chloride 2% at 37° C. for 5 min. The sections were then stored in 10% formalin at 4° C. for 24 h. Areas of infarction were measured with an image analyzer (Leica Q500)."}, "[3]": {"details": "10 mg/kg ip with RuR 30 mg/kg ip, 15 min"}, "[4]": {"details": "10 mg/kg ip with RuR 30 mg/kg ip, 30 min"}, "[5]": {"details": "10 mg/kg ip with RuR 30 mg/kg ip, 45 min"}, "[6]": {"details": "30 mg/kg ip with RuR 30 mg/kg ip, 15 min"}, "[7]": {"details": "30 mg/kg ip with RuR 30 mg/kg ip, 30 min"}, "[8]": {"details": "30 mg/kg ip with RuR 30 mg/kg ip, 45 min"}}}
{"smiles": "CCCN(c1ccncc1F)n1cc(C)c2ccccc21", "note": "[HP184, N-(3-fluoro-4-pyridinyl)-N-propyl-3-methyl-1H-indole-1-amine]", "values": [{"measurement": "% of mice that could support their own body weight", "setting": "[1]; [3]", "value": "(93.3%)"}, {"measurement": "number of mice that could support their own body weight versus total tested", "setting": "[1]; [3]", "value": "14 out of 15"}, {"measurement": "% of mice that could support their own body weight", "setting": "[1]; [4]", "value": "(80%)"}, {"measurement": "number of mice that could support their own body weight versus total tested", "setting": "[1]; [4]", "value": "12 out of 15"}, {"measurement": "% of mice that could support their own body weight", "setting": "[1]; [5]", "value": "(73.3%)"}, {"measurement": "number of mice that could support their own body weight versus total tested", "setting": "[1]; [5]", "value": "11 out of 15"}, {"measurement": "% of mice that could support their own body weight", "setting": "[1]; [6]", "value": "(100%)"}, {"measurement": "number of mice that could support their own body weight versus total tested", "setting": "[1]; [6]", "value": "15 out of 15"}, {"measurement": "% of mice that could support their own body weight", "setting": "[1]; [7]", "value": "(100%)"}, {"measurement": "number of mice that could support their own body weight versus total tested", "setting": "[1]; [7]", "value": "15 out of 15"}, {"measurement": "% of mice that could support their own body weight", "setting": "[1]; [8]", "value": "(100%)"}, {"measurement": "number of mice that could support their own body weight versus total tested", "setting": "[1]; [8]", "value": "15 out of 15"}, {"measurement": "antagonism of the flaccid paralysis induced by ip RuR (conclusion)", "setting": "[1]; ip, doses of Table 3", "value": "can antagonize the flaccid paralysis"}, {"measurement": "reduction of lesion in the cortex", "setting": "[2]; cortex", "value": "−45", "unit": "%"}, {"measurement": "reduction of brain lesions", "setting": "[2]; measured 24 h post-ischemia", "value": 41, "unit": "%"}]}
